From patent US20250115569A1, “SULFONAMIDE COMPOUNDS FOR THE TREATMENT OF NEUROLOGICAL CONDITIONS” (LARIO THERAPEUTICS LIMITED, priority 2021, published 2025) come the findings set out here.

This assay concerns Human Cav2.3 channel. Put plainly: Human Cav2.3 channel calcium-influx assay. Format: cell-based. As to conditions: Fluo8 fluorescence, HEK-293 T-Rex/Kir2.1/Cav2.3e cells, without pluronic acid. Here is the method: HEK-293 T-Rex cells were transfected with pcDNA3.1-Kir2.1 to generate a stable cell line. After antibiotic selection, the obtained stable pools were analysed using FLIPR^TETRA (membrane potential assay), and a limiting dilution was performed and a HEK-293 T-Rex/Kir2.1 clone was selected. The clone was transfected with pcDNA3.1-Cav2.3e and pBud-Cav-β4-α2δ1 to generate a stable cell line where the Cav2.3e expression is inducible. After antibiotic selection, functional clone pool analysis and two successive limiting dilutions, the final clone underwent a qPCR analysis and a biophysical and pharmacological validation using patch-clamp.
A compound plate, containing 10 test compounds in eight-points dose response with n=4, was prepared. Test compounds dose response curves were prepared in automated fashion in 100% DMSO at CyBio Felix and starting from a stock solution in 100% DMSO; a defined volume was serially moved into destination wells pre-filled with the desired DMSO volume; stock solution concentration volumes were dependent on the final compounds concentrations to be tested and the final DMSO content used in the assay. For the assay test compounds dose response curves ranged from 30 μM and half log dilution with 0.3% final DMSO. In order to obtain the 8-points dose response curve all the concentrations were created by starting from a 10 mM DMSO stock solution and then moving 9.5 μL into a destination well pre-filled with 20.5 μL of 100% DMSO and repeating this step seven times. This initial step was done into 96 MTP plates, 10 compounds/plate. One 384 MTP was then reformatted to contain all the 10 compounds at 8 concentrations, quadruplicate data points. This so obtained 384 MTP compound plate served as source plate in a “mother to child” process with a CyBi®-Well dispenser in which 0.7 μL of compounds were moved into a destination plate pre-filled with 57.6 μL of Tyrode's buffer 0 mM K+, thus obtaining 4× concentrated compounds solution. In columns 1-2 and 23-24 the control wells were added. Both “source” compound plate and “destination” compound plate were barcoded and a relationship between the two plates was thus generated.
The day before the experiment, cells were detached by gentle wash with DPBS, followed by 5 min incubation at 37° C. with Trypsin solution. Detached cells were diluted with OptiMEM+Doxycycline at 0.2 μg/mL, counted and plated in Poly-D-Lysine coated black/clear bottom (15.000 c/well in 20 μl/well) by the use of a MATRIX WellMate dispenser. Plates were placed into a humidified incubator at 37° C. with 5% CO2 until the experimental day. 24 h after seeding 10 μL/well of 1.5× Fluo8 NW dye solution prepared in Tyrode's buffer 0 mM K* were added on top of the seeding medium. Cell plates were incubated for 40-60 min at RT in the dark. We then Injected off-line 10 μL/well of test compounds and controls 4× concentrated in Tyrode's Buffer 0 mM K+ with the CyBi®-Well instrument. Cell plates were incubated 3 minutes at RT. Finally, we injected 20 μL/well of 3× concentrated activator solution (K20-Na130-Ca2 buffer: 20 mM KCl, 130 mM NaCl, 2 mM CaCl2, 10 mM HEPES, 10 mM Glucose, final concentrations, prepared starting from “K0-Na150-Ca2” and “K150-Na0-Ca2” buffers) at FDSS7000EX instrument and read emitted fluorescence for 130 seconds.
Data analysis was performed with Genedata Screener® software and reported compounds activity as % effect in relation to the normalization standards. The Kinetic Response Value (KRV) is calculated as follows:
KRV=Maximal fluorescence recorded from second 5 to second 130 minus baseline fluorescence, computed as average from second 1 to second 2, of the kinetic trace. The KRV was normalized versus Neutral Controls and Inhibitor Controls in order to obtain the Activity[%] for each well. […] Therefore, the compound activity values were scaled (based on the two references) to a common range (two-point normalization). […]
As to `CCN(C(c1ccc(F)cc1)C(F)(F)F)S(=O)(=O)c1ccc2c(c1)COCC2` (stereo not drawn) [Example 29, N-ethyl-N-(2,2,2-trifluoro-1-(4-fluorophenyl)ethyl)isochromane-7-sulfonamide], the “Cav2.3 (pIC50)” value worked out at 6.18.

Regarding `CCN(C(c1ccc(F)cc1)C(F)(F)F)S(=O)(=O)c1ccc(C)s1` (stereo not drawn) [Example 8, N-ethyl-5-methyl-N-(2,2,2-trifluoro-1-(4-fluorophenyl)ethyl)thiophene-2-sulfonamide], the “Cav2.3 (pIC50)” value is recorded as 5.53.

For `CCN(C(c1ccc(F)cc1)C(F)(F)F)S(=O)(=O)C1CCCOC1` (stereo not drawn) [Example 56, N-ethyl-N-(2,2,2-trifluoro-1-(4-fluorophenyl)ethyl)tetrahydro-2H-pyran-3-sulfonamide], the “Cav2.3 (pIC50)” value stood at 6.92.

As for `CN([C@H](c1ccc(C(F)(F)F)cc1)C(F)(F)F)S(=O)(=O)c1ccc2ncc(Cl)n2c1` [Example 233, (R)-3-chloro-N-methyl-N-(2,2,2-trifluoro-1-(4-(trifluoromethyl)phenyl)ethyl)imidazo[1,2-a]pyridine-6-sulfonamide], the “Cav2.3 (pIC50)” value turned out to be 5.91.

Regarding `CN([C@H](c1ccc(Cl)cc1)C(F)(F)F)S(=O)(=O)c1ccc2nncn2n1` [Example 205, (R)—N-(1-(4-chlorophenyl)-2,2,2-trifluoroethyl)-N-methyl-[1,2,4]triazolo[4,3-b]pyridazine-6-sulfonamide], the “Cav2.3 (pIC50)” value was 5.89.

`CCN([C@H](c1cccc(Cl)c1)C(F)(F)F)S(=O)(=O)c1cncc(C#N)c1` [Example 251, (R)—N-(1-(3-chlorophenyl)-2,2,2-trifluoroethyl)-5-cyano-N-ethylpyridine-3-sulfonamide]: the “Cav2.3 (pIC50)” value is 7.18.

Regarding `CCN([C@@H](c1ccc(F)c(F)c1)C(F)(F)F)S(=O)(=O)c1cncc(C#N)c1` [Example 249, (S)-5-cyano-N-(1-(3,4-difluorophenyl)-2,2,2-trifluoroethyl)-N-ethylpyridine-3-sulfonamide], the “Cav2.3 (pIC50)” value is reported as 5.73.

`CCN([C@@H](c1ccc(F)cc1)C(F)(F)F)S(=O)(=O)c1csc(C#N)c1` (stereo in doubt) [Example 44, 5-cyano-N-ethyl-N-(2,2,2-trifluoro-1-(4-fluorophenyl)ethyl)thiophene-3-sulfonamide]: the “Cav2.3 (pIC50)” value was found to be 5.23.

On to `CN([C@H](c1ccc(F)cc1)C(F)(F)F)S(=O)(=O)c1ccc2cnn(C)c2c1` [Example 161, (R)—N,1-dimethyl-N-(2,2,2-trifluoro-1-(4-fluorophenyl)ethyl)-1H-indazole-6-sulfonamide], for which the “Cav2.3 (pIC50)” value is 6.22.

For `CCN([C@H](c1ccc(F)cc1)C(F)(F)F)S(=O)(=O)c1ccc2c(c1)OC(F)(F)O2` [Example 162, (R)—N-ethyl-2,2-difluoro-N-(2,2,2-trifluoro-1-(4-fluorophenyl)ethyl)benzo[d][1,3]dioxole-5-sulfonamide], the “Cav2.3 (pIC50)” value came to 6.01.

Take `CCNc1nc2ccc(S(=O)(=O)N(CC)[C@H](c3ccc(F)cc3)C(F)(F)F)cc2s1` [Example 139, (R)—N-ethyl-2-(ethylamino)-N-(2,2,2-trifluoro-1-(4-fluorophenyl)ethyl)benzo[d]thiazole-6-sulfonamide]: the “Cav2.3 (pIC50)” value was 6.31.

As for `CCN(C(c1ccc(F)cc1)C(F)(F)F)S(=O)(=O)c1csc(C#N)c1` (stereo not drawn) [Example 42, 5-Cyano-N-ethyl-N-(2,2,2-trifluoro-1-(4-fluorophenyl)ethyl)thiophene-3-sulfonamide], the “Cav2.3 (pIC50)” value was 6.90.

On to `CCN([C@H](c1ccc(Cl)cc1)C(F)(F)F)S(=O)(=O)c1cncnc1` [Example 134, (R)—N-(1-(4-chlorophenyl)-2,2,2-trifluoroethyl)-N-ethylpyrimidine-5-sulfonamide], for which the “Cav2.3 (pIC50)” value was found to be 7.65.

On to `CCN(C(c1ccc(F)cc1)C(F)(F)F)S(=O)(=O)c1ccc2c(c1)COC2` (stereo not drawn) [Example 36, N-ethyl-N-(2,2,2-trifluoro-1-(4-fluorophenyl)ethyl)-1,3-dihydroisobenzofuran-5-sulfonamide], for which the “Cav2.3 (pIC50)” value was 6.58.

Consider `Cc1ccc(S(=O)(=O)N(C)C(c2ccc(F)cc2)C(F)(F)F)s1` (stereo not drawn) [Example 11, N,5-dimethyl-N-(2,2,2-trifluoro-1-(4-fluorophenyl)ethyl)thiophene-2-sulfonamide], for which the “Cav2.3 (pIC50)” value turned out to be 5.22.

With `CCN([C@@H](c1ccc(F)cc1)C(F)(F)F)S(=O)(=O)c1cncc(N2CCCC2)c1` [Example 97, (S)—N-ethyl-5-(pyrrolidin-1-yl)-N-(2,2,2-trifluoro-1-(4-fluorophenyl)ethyl)pyridine-3-sulfonamide], the “Cav2.3 (pIC50)” value worked out at 5.22.

`CCN([C@@H](c1ccccc1F)C(F)(F)F)S(=O)(=O)c1cncc(C#N)c1` [Example 117, (S)-5-cyano-N-ethyl-N-(2,2,2-trifluoro-1-(2-fluorophenyl)ethyl)pyridine-3-sulfonamide]: the “Cav2.3 (pIC50)” value was 5.38.

Regarding `CCN(C(c1ccc(F)cc1F)C(F)(F)F)S(=O)(=O)c1cncc(C#N)c1` (stereo not drawn) [Example 243, 5-cyano-N-(1-(2,4-difluorophenyl)-2,2,2-trifluoroethyl)-N-ethylpyridine-3-sulfonamide], the “Cav2.3 (pIC50)” value is recorded as 5.19.

Take `CCN([C@@H](c1ccc(F)cc1)C(F)(F)F)S(=O)(=O)c1ccc(N2CCOCC2)s1` [Example 91, (S)—N-ethyl-5-morpholino-N-(2,2,2-trifluoro-1-(4-fluorophenyl)ethyl)thiophene-2-sulfonamide]: the “Cav2.3 (pIC50)” value was 5.37.

For the molecule `CCN([C@H](c1ccc(F)cc1)C(F)(F)F)S(=O)(=O)c1ccc(F)s1` [Example 16, (R)—N-ethyl-5-fluoro-N-(2,2,2-trifluoro-1-(4-fluorophenyl)ethyl)thiophene-2-sulfonamide], the “Cav2.3 (pIC50)” value is reported as 5.78.

Turning to `CCN(C(c1ccc(F)cc1)C(F)(F)F)S(=O)(=O)c1cnc(C)nc1` (stereo not drawn) [Example 75, N-ethyl-2-methyl-N-(2,2,2-trifluoro-1-(4-fluorophenyl)ethyl)pyrimidine-5-sulfonamide], the “Cav2.3 (pIC50)” value was determined as 5.94.

On to `CCN([C@H](c1ccc(F)cc1)C(F)(F)F)S(=O)(=O)c1ccc(C)s1` [Example 10, (R)—N-ethyl-5-methyl-N-(2,2,2-trifluoro-1-(4-fluorophenyl)ethyl)thiophene-2-sulfonamide], for which the “Cav2.3 (pIC50)” value came out at 5.66.

Turning to `CN([C@H](c1ccc(Cl)cc1)C(F)(F)F)S(=O)(=O)c1cnc2cccnn12` [Example 210, (R)—N-(1-(4-chlorophenyl)-2,2,2-trifluoroethyl)-N-methylimidazo[1,2-b]pyridazine-3-sulfonamide], the “Cav2.3 (pIC50)” value worked out at 6.85.

For the molecule `CCN([C@H](c1ccc(F)cc1)C(F)(F)F)S(=O)(=O)c1ccc2c(c1)OCC2` [Example 40, (R)—N-ethyl-N-(2,2,2-trifluoro-1-(4-fluorophenyl)ethyl)-2,3-dihydrobenzofuran-6-sulfonamide], the “Cav2.3 (pIC50)” value is reported as 5.62.

For `CCN(C(c1cccc(F)c1)C(F)(F)F)S(=O)(=O)c1cncc(C#N)c1` (stereo not drawn) [Example 110, 5-Cyano-N-ethyl-N-(2,2,2-trifluoro-1-(3-fluorophenyl)ethyl)pyridine-3-sulfonamide], the “Cav2.3 (pIC50)” value stood at 7.11.

In the case of `Cc1ncc(S(=O)(=O)N(C)[C@@H](c2ccc(F)cc2)C(F)(F)F)cn1` [Example 79, (S)—N,2-dimethyl-N-(2,2,2-trifluoro-1-(4-fluorophenyl)ethyl)pyrimidine-5-sulfonamide], the “Cav2.3 (pIC50)” value came to 4.99.

In the case of `CCN(C(c1ccc(F)cc1)C(F)(F)F)S(=O)(=O)c1cc(C)c(Cl)s1` (stereo not drawn) [Example 31, 5-chloro-N-ethyl-4-methyl-N-(2,2,2-trifluoro-1-(4-fluorophenyl)ethyl)thiophene-2-sulfonamide], the “Cav2.3 (pIC50)” value turned out to be 6.43.
